Reference: article PMC6367069 (Rapid communications in mass spectrometry : RCM, 2019)
Like-named read-outs stand apart in the source and are kept apart here.

Legend:
[1] = molecular target: T1, PPARγ (Homo sapiens, UniProt P37231); settings: for binding to immobilized PPARγ (SPR binding analysis): 50 μM and 100 μM analyte, 25 °C; for Kd: single cycle kinetics, heterogeneous ligand model
T1 sequence (P37231 1-505): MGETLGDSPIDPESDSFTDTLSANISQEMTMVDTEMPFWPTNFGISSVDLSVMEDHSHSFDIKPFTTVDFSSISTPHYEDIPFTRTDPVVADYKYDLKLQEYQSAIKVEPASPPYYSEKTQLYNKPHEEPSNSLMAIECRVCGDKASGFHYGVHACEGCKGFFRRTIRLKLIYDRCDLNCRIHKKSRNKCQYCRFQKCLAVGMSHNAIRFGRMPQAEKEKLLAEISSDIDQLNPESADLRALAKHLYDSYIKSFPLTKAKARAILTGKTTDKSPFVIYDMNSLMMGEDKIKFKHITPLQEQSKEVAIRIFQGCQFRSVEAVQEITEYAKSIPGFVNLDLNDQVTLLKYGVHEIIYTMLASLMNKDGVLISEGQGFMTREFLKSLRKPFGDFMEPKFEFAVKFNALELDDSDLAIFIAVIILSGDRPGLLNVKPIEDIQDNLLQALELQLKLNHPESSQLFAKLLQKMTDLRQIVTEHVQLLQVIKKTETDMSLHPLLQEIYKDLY

[2] = test system: PPARγ; settings: endogenous ligand of PPARγ; cited from earlier work

Compound	binding to immobilized PPARγ (SPR binding analysis) [1]	Kd ([1]; read-out: Kd1) [µM]	Kd ([1]; read-out: Kd2) [µM]	EC50 [2] [µM]
CCCCC(CC)COC(=O)c1ccccc1C(=O)OCC(CC)CCCC (centres unmarked) [DEHP, di-(2-ethylhexyl)phthalate]	almost no detectable binding	–	–	–
CCCCC/C=C/C=C1/C(=O)C=C[C@@H]1C/C=C\CCCC(=O)O [15Δ-PGJ2, 15-deoxy-delta-12,14-prostaglandin J2]	direct binding	10	311	2
